Ends that are not written are not given here.
Legend:
[1] = tested on: HeLa cells; experiment: Step-wise repeated delivery of DEAC-K9 and SNAP-Surface 488; assay type: cell-based; settings: 5 μM dTAT + 5 μM DEAC-K9 1 h, then 5 μM dTAT + 5 μM SNAP-Surface 488 1 h
Description: To test this idea, the step-wise delivery of two different molecules (DEAC-K9 and SNAP-Surface® 488) was assessed. Cells were first incubated with dTAT (5 μM) and DEAC-K9 (5 μM) for 1 h. […] Twenty minutes later, cells were incubated with dTAT (5 μM) and SNAP-Surface® 488 (5 μM) for 1 h. […] Briefly, HeLa cells were first incubated with 5 μM dTAT and 5 μM DEAC-K9 for 1 h. Cells were then washed, incubated with 5 μM SNAP-Surface® 488 for 1 h and imaged.

[2] = tested on: HeLa, Neuro-2a and HDF cells; experiment: Cell proliferation, MTT assay in several cell types; assay type: cell-based; settings: 5 μM, 1 h; up to 36 h after incubation
Description: FIG. 12 illustrates that cells treated with dTAT proliferate at a rate identical to untreated cells. HeLa, Neuro-2a and HDF cells were incubated with 5 μM dTAT for 1 h or left untreated. Proliferation was assessed using a MTT assay for up to 36 h after incubation (150,000 cells/experiment, experiments in triplicates, average and standard deviations represented).
In order to determine cells that had compromised plasma membranes, cells were treated with SYTOX® Green (SYTOX® Blue in some cases) and Hoechst (Invitrogen, Carlsbad, Calif.). SYTOX® dyes are cell-impermeable and stain the DNA of cells with compromised plasma membranes. The Hoechst dye is cell permeable and stains the DNA of all cells. Images were acquired using the green and blue filter. The green and blue images were used to count cells with a blue or green stained nucleus. Image J was used to count the dead (green) and total cells (blue). Cytotoxicity was determined from the ratio of SYTOX® Green positive cells/total number of cells. […] After the incubation each sample was mixed and the absorbance at 600 nm was measured. […] A second control consisted of cells treated with the delivery peptide but to which no MTT was added to subtract the contribution of TMR from the measured absorbance. The absorbance of the negative control was subtracted from all samples.

[3] = tested on: NIH 3T3 cells; experiment: HoxB4 and TAT-HoxB4 delivery, luciferase reporter under a HoxB4-inducible promoter; assay type: cell-based, murine; settings: dTAT 3 μM alone
Description: Next, the delivery of the therapeutically important transcription factor HoxB4 was tested. HoxB4 can penetrate cells by itself or when fused to the […] TAT and activate transcription. […] NIH 3T3 cells were transfected with a vector containing the luciferase gene under a HoxB4-inducible promoter and with a β-galactosidase reporter as internal control. Cells were incubated with HoxB4 or TAT-HoxB4, in the absence or presence of dTAT for 1.5 h. Cells were then lysed and luciferase expression was assessed by measuring the luminescence of cell lysates normalized to β-galactosidase activity. […] These values are consistent with previously published reports. In contrast, addition of dTAT (3 μM), led to a luciferase induction of 53.1 and 307.4, respectively. The luciferase induction was therefore increased 24-fold in the presence of dTAT for HoxB4 and 61-fold for TAT-HoxB4. […] While increasing the transcriptional output of HoxB4 is valuable, high levels of HoxB4 expression can result in anti-proliferative and transforming effects. Precisely controlling the level and activity of HoxB4 inside cells is therefore important to achieve a desirable biological outcome. Because dTAT appears to act independently of the molecules used for co-incubation in our assays, it was hypothesized that it might be possible to titrate the amount of protein that penetrates cells by varying the protein concentration in the media while keeping dTAT concentration constant. Under this scenario, the efficiency of endosomal escape should remain unaffected but the amount of material released from endosomes should change.
The murine fibroblast cell line (NIH-3T3, stably transfected with the E2A-PBX vector), the luciferase reporter vector, pML (5×HOX/PBX; contains a promoter with binding sites for HOXB4 and PBX) and the β-gal internal control vector used in the following studies were kindly provided by P. Zandstra (University of Toronto, Ontario, Canada). The cells were initially cultured in 100 mm dishes at 37° C. with 5% CO2 in DMEM supplemented with 10% FBS. For experimental purposes, however, cells were seeded in 24-well plates at a density of 5-6×10^4 cells/well for 24 hours. Subsequently, cells were co-transfected with 0.8 μg/mL of pML (5×HOX/PBX) and of the β-gal internal control vector using Lipofectamine 2000. Twelve hours post-transfection, cells were washed and incubated with TAT-HoxB4 or HoxB4 (both at 200 nM, unless otherwise noted; see below) with or without TAT or dTAT in nrL-15 for 90 min. Some cells were also incubated with TAT-mCherry (200 nM) with and without the peptides. After incubation, all cells were washed with PBS and lysed according to the manufacturer's protocol for the reporter lysis buffer (RLB) (Promega). For titration experiments, the same protocol was followed, with the exception that HoxB4 concentrations were varied (25, 50, 100, 150 and 200 nM). In order to quantitate the luciferase reporter activity, 100 μL of luciferase assay reagent (Promega) was added to 20 μL of cell lysate and bioluminescence was immediately measured using a SpectraMaxL luminometer (Sunnyvale, Calif.). […] Absorbance was then measured at 450 nm using the plate reader. Since the absorption spectrum of the chromophore (TMR) conjugated to the peptide used in this study overlaps with that of β-gal, 20 μL of cell lysate containing the peptide was also diluted with 180 μL of the lysis buffer and absorbance values obtained at 450 nm were subtracted from that of the β-gal absorbance values. […]

## (CK(TMR)TAT)2 (CK(TMR)RKKRRQRRRG; also: dimer) [dTAT, dimer of two CK(TMR)-TAT monomers linked via a disulfide bond between the N-terminal cysteine residues]
[1]
  repeatability of dTAT-mediated delivery: can be repeated
[2]
  proliferation of treated versus untreated cells: nearly identical proliferation patterns
[3]
  induction of luciferase: Neither dTAT alone nor dTAT incubated with TAT-mCherry led to the induction of luciferase

— patent US9662404B2, “Compositions and methods for the delivery of molecules into live cells” (The Texas A&M University System, priority 2013, dated 2017)
